# Patent US10793528B2 (priority 2016, dated 2020)
# Columns and labels:
# [1] = biological target: human nociceptin/orphanin FQ peptide receptor (hNOP) (Homo sapiens (Human), UniProt P41146); type: binding
# [2] = biological target: human mu-opioid receptor (hMOP) (Homo sapiens (Human), UniProt P35372); type: binding
# [3] = biological target: human delta-opioid receptor (hDOP) (Homo sapiens (Human), UniProt P41143); experiment: hDOP receptor binding assay (SPA, [3H]2-D-Ala-deltorphin II); details: concentration not given; neighbouring values @1μM
Structure (SMILES),hNOP % @1μM (given instead of Ki) [1] [% @1μM],hMOP % @1μM (given instead of Ki) [2] [% @1μM],DOP % [3]
"CCN(C)C1(c2ccccc2)CCC2(CC1)CN(CC(C)(C)C(N)=O)C(=O)N2C (stereo not drawn) [SC_5066, CIS-3-[8-(Ethyl-methyl-amino)-1-methyl-2-oxo-8-phenyl-1,3-diazaspiro[4.5]decan-3-yl]-2,2-dimethyl-propionamide]",0,7,(DOP 22%)
"CCN(C)[C@]1(c2ccccc2)CC[C@]2(CC1)CN(CC(C)(C)C(N)=O)C(=O)N2 [SC_5064, CIS-3-[8-(Ethyl-methyl-amino)-2-oxo-8-phenyl-1,3-diazaspiro[4.5]decan-3-yl]-2,2-dimethyl-propionamide]",3,3,(DOP 20%)
